# From ChEMBL document CHEMBL1137244, “Ureas with histamine H3-antagonist receptor activity--a new scaffold discovered by lead-hopping from cinnamic acid amides” (Bioorg Med Chem Lett, 2006)
# What was measured:
# Histamine H3 receptor = Histamine H3 receptor (Homo sapiens, UniProt Q9Y5N1); assay: Binding affinity at histamine H3 receptor by hH3-[35S]GTPgamma[S] binding assay; type: functional
# hERG (KCNH2) = hERG (KCNH2) (Homo sapiens, UniProt Q12809); assay: in vitro
# Cytochrome P450 1A2 = target: T1, Cytochrome P450 1A2 (Homo sapiens, UniProt P05177)
# T1 sequence (P05177 whole entry): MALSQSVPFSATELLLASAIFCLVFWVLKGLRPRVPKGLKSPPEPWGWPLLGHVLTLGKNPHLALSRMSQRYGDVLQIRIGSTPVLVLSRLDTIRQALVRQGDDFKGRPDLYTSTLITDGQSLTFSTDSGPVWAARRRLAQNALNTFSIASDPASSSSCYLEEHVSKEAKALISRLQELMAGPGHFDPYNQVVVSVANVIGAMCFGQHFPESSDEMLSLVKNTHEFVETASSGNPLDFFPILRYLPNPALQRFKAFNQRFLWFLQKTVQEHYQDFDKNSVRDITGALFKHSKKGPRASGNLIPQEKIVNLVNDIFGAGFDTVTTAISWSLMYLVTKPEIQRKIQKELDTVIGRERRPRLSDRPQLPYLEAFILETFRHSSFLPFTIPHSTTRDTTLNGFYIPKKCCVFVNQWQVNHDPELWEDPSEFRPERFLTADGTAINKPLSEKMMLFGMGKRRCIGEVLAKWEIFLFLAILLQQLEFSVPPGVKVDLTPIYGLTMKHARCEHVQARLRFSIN
# Cytochrome P450 3A4 = Cytochrome P450 3A4 (Homo sapiens, UniProt P08684)
# Cytochrome P450 2D6 = Cytochrome P450 2D6 (Homo sapiens, UniProt P10635)
# [1] = HEK293 cells that express hERG, probe [3H]astemizole
# Cytochrome P450 2D6, sequence (P10635 whole entry): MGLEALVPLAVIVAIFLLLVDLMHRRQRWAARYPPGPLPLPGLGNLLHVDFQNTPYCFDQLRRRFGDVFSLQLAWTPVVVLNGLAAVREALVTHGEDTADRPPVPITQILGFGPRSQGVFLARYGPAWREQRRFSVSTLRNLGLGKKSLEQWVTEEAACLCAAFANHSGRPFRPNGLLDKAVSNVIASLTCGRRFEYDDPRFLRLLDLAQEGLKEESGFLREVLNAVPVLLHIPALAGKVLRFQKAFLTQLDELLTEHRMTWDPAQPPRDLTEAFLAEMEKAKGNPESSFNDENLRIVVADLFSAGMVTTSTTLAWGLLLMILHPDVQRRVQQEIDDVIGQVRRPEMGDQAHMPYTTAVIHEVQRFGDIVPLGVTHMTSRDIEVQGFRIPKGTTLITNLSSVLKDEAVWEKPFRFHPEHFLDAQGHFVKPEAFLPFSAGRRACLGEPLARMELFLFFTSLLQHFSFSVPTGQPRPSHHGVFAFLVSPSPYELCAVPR
# hERG (KCNH2), sequence (Q12809 whole entry): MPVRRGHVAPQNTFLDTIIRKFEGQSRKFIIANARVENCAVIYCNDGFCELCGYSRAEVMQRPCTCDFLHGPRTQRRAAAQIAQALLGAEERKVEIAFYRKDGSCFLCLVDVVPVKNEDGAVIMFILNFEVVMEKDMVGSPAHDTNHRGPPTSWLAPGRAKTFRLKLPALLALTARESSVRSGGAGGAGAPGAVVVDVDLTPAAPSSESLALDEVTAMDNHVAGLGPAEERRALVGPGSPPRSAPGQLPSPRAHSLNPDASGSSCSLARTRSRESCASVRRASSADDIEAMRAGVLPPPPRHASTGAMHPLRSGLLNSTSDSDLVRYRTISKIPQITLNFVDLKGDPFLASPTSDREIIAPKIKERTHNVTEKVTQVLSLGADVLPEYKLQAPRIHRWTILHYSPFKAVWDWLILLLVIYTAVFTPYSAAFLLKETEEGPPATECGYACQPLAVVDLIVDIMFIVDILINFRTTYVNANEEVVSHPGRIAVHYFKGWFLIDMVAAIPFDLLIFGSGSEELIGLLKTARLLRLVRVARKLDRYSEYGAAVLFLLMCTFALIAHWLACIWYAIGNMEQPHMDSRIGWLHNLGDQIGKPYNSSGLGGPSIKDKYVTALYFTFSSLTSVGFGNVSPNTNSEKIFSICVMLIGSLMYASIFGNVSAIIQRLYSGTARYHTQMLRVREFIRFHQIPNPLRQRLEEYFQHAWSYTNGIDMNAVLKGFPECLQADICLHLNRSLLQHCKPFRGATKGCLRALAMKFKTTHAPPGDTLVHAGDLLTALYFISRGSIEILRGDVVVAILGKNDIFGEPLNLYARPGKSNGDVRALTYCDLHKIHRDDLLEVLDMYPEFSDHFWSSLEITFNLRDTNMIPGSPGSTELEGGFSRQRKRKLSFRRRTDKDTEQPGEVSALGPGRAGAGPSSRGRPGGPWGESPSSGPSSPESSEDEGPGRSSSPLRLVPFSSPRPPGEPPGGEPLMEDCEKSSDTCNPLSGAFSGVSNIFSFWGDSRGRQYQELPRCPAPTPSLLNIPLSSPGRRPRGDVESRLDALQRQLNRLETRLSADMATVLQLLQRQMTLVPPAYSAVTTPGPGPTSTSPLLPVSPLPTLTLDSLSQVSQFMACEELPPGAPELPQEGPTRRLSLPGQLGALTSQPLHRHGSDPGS
# Cytochrome P450 3A4, sequence (P08684 whole entry): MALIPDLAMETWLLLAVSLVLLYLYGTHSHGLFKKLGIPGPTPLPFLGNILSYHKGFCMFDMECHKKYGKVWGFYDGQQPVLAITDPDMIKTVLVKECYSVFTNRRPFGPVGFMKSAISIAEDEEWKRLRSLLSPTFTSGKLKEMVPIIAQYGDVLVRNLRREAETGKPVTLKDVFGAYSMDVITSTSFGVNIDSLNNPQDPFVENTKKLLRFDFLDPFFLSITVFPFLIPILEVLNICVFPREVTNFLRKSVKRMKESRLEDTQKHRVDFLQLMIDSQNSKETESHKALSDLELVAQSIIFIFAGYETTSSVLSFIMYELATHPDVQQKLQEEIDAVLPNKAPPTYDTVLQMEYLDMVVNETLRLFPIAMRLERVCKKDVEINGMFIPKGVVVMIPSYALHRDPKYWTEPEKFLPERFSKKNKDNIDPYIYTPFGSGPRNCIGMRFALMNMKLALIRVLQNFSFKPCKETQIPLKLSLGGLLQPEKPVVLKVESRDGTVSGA
# Histamine H3 receptor, sequence (Q9Y5N1 whole entry): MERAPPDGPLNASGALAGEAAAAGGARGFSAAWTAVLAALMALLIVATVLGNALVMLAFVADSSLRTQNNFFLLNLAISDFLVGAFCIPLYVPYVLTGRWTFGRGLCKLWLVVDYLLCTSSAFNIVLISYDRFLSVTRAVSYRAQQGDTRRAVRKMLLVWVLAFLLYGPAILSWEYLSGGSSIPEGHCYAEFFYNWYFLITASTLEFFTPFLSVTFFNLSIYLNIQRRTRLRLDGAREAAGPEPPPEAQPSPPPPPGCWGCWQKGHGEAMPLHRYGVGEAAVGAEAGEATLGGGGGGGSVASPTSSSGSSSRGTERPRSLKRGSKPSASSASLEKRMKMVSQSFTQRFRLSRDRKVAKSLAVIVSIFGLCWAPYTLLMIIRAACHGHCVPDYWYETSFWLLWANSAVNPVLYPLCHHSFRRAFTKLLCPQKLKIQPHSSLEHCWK
SMILES,Ki (Histamine H3 receptor),further results
O=C(NC1Cc2ccccc2C1)N1CCC[C@H]1CN1CCCC1,52 nM (antagonist),
CN(Cc1ccc(-c2ccccc2)cc1)C(=O)N1CCC[C@H]1CN1CCCC1,,inhibition at 10 µM (hERG (KCNH2); [1]): 66%
O=C(NCc1ccc(OC(F)(F)F)cc1)N1CCC[C@H]1CN1CCCC1,121 nM (antagonist),
O=C(NCC1CCCCC1)N1CCC[C@H]1CN1CCCC1,458 nM (antagonist),
O=C(NCc1ccc(Cl)c(Cl)c1)N1CCC[C@H]1CN1CCCC1,47 nM (antagonist),
CC(C)N1CCN(C(=O)N2CCC(C(=O)OC(C)(C)C)CC2)CC1,,IC50 (Cytochrome P450 1A2): > 25000 nM; IC50 (Cytochrome P450 3A4): > 25000 nM; IC50 (Cytochrome P450 2D6): > 25000 nM; inhibition at 10 µM (hERG (KCNH2); [1]): 9%
COc1ccc(CNC(=O)N2CCC[C@H]2CN2CCCC2)cc1,295 nM (antagonist),
CCN1CCN(C(=O)N[C@@H]2C[C@H]2c2ccccc2)CC1,40 nM (antagonist),
CC(C)N1CCN(C(=O)N2CCC(C(=O)N3CC4CCC(CC4)C3)CC2)CC1,,IC50 (Cytochrome P450 1A2): > 25000 nM; IC50 (Cytochrome P450 3A4): > 25000 nM; IC50 (Cytochrome P450 2D6): > 25000 nM; inhibition at 10 µM (hERG (KCNH2); hek293): 8%
O=C(NCc1ccc(Oc2ccccc2)cc1)N1CCN(C2CCCC2)CC1,38 nM (antagonist),
O=C(NCc1ccc(-c2ccccc2)cc1)N1CCC[C@H]1CN1CCCC1,87 nM (antagonist),
O=C(/C=C/c1ccc(OC(F)(F)F)cc1)N1CCC[C@H]1CN1CCCC1,13.4 nM (antagonist),
O=C(NCc1cccc(C(F)(F)F)c1)N1CCC[C@H]1CN1CCCC1,117 nM (antagonist),
O=C(NCc1ccc(Cl)c(Cl)c1)N1CCN(C2CCCC2)CC1,15 nM (antagonist),
O=C(/C=C/c1ccc(Cl)cc1)N1CCC[C@H]1CN1CCCC1,11.2 nM (antagonist),
COc1cc2c(cc1OC)CN(C(=O)N1CCN(C(C)C)CC1)CC2,,inhibition at 10 µM (hERG (KCNH2); [1]): 8%
COc1cccc(CNC(=O)N2CCC[C@H]2CN2CCCC2)c1,188 nM (antagonist),
CC(C)N1CCN(C(=O)N(C)Cc2ccc(-c3ccccc3)cc2)CC1,37 nM (antagonist),inhibition at 10 µM (hERG (KCNH2); [1]): 55%
CC(C)N1CCN(C(=O)N2CCC(Cc3ccccc3)CC2)CC1,,inhibition at 10 µM (hERG (KCNH2); hek293): 21%

SMILES,Ki (Histamine H3 receptor),further results
CC(C)N1CCN(C(=O)NC2Cc3ccccc3C2)CC1,30 nM (antagonist),
O=C(/C=C/c1ccc(-c2ccccc2)cc1)N1CCC[C@H]1CN1CCCC1,3.7 nM (antagonist),
O=C(NCc1ccccc1)N1CCN(C2CCCC2)CC1,94 nM (antagonist),
CC(C)N1CCN(C(=O)N2CCC(NC(=O)C3CCCC3)CC2)CC1,,IC50 (Cytochrome P450 1A2): > 25000 nM; IC50 (Cytochrome P450 3A4): > 25000 nM; IC50 (Cytochrome P450 2D6): 17000 nM; inhibition at 10 µM (hERG (KCNH2); hek293): 6%
CCN1CCN(C(=O)NC2Cc3ccccc3C2)CC1,44 nM (antagonist),
O=C(N1CCN(C2CC2)CC1)N1Cc2ccccc2C1,,inhibition at 10 µM (hERG (KCNH2); [1]): 16%
CC(C)N1CCN(C(=O)NCc2ccc(Cl)c(Cl)c2)CC1,20 nM (antagonist),
CC(C)N1CCN(C(=O)N2CC=C(c3ccccc3)CC2)CC1,,inhibition at 10 µM (hERG (KCNH2); hek293): 31%
NCc1cccc(CNC(=O)N2CCC[C@H]2CN2CCCC2)c1,78 nM (antagonist),
NCc1ccc(CNC(=O)N2CCC[C@H]2CN2CCCC2)cc1,109 nM (antagonist),
O=C(NC1Cc2ccccc2C1)N1CCN(C2CCCC2)CC1,29 nM (antagonist),
O=C(N1Cc2ccccc2C1)N1CCC[C@H]1CN1CCCC1,,inhibition at 10 µM (hERG (KCNH2); [1]): 26%
O=C(NCc1ccccc1)N1CCC[C@H]1CN1CCCC1,196 nM (antagonist),
O=C(NCc1ccc(Oc2ccccc2)cc1)N1CCC[C@H]1CN1CCCC1,34 nM (antagonist),
O=C(NCCc1ccccc1)N1CCC[C@H]1CN1CCCC1,226 nM (antagonist),
O=C(NCc1ccc(Cl)cc1)N1CCC[C@H]1CN1CCCC1,165 nM (antagonist),
O=C(N1CCN(C2CCCC2)CC1)N1Cc2ccccc2C1,,inhibition at 10 µM (hERG (KCNH2); [1]): 45%
CC(C)N1CCN(C(=O)NCc2ccc(Oc3ccccc3)cc2)CC1,34 nM (antagonist),
